The test system of assay [1] is apChromatin (depurinated chicken erythrocyte nuclear chromatin). Kind of assay: Acridine orange staining after acid hydrolysis of dsDNA to apurinic acid, fluorescence microscopy. Format: binding. How it is done: Depurination of dsDNA within the nuclear chromatin of chicken erythrocytes was accomplished by using a modification of the Feulgen method (Feulgen and Rossenbeck, 1924). Specifically, the nucleated chicken erythrocyte slide preparations were rinsed in a 1 N solution of HCl at room temperature for 60 seconds. This was followed by placement of the slide in a pre-heated (55° C.) solution of 1 N HCl for 10 minutes under static conditions followed by several rinses in distilled water at room temperature. Slides were allowed to dry at room temperature then stained with AO at two different concentrations, one at 5 mM and the other at 10 μM for 15 min and 2 min, respectively. The depurination of DNA was expected to remove the site on the DNA polymer where AO intercalation can occur.
Solutions of AO were prepared at 5 mM and 10 μM concentrations in distilled water. […] Processed slides were stored in the dark then read and photomicrographs taken (Zeiss Model 63 Microscope, 1600 ASA Kodak film) soon after removal from the dark to avoid photobleaching.
In the example shown in Table 4-1, the chicken erythrocytes were smeared and dried on a microscope slide prior to exposure to two different concentrations of AO (10 μM and 5 mM), rinsed with distilled water, and allowed to dry. Erythrocytes were examined with fluorescence microscopy and the color of the nuclei recorded. […]

The conditions of assay [2]: AO-AO, AO [20 μM], Kapuscinski & Kimmel, 1993, cited from earlier work.
In another assay the test system is herring sperm dsDNA. Kind of assay: Acridine orange with dsDNA, spectrofluorometry λem 530 nm. Format: binding. Conditions: AO-DNA, AO [2 μM], DNA [>20 μM], hydrochloride. How it is done:
In another implementation, a spectrofluorometric analysis of the interaction of AO with dsDNA at λex 485 nm and λem 530 nm and 635 nm was also conducted. The interaction of DNA with lower concentrations of AO [2 μM] mimicked the results found at the higher AO concentration of 20 μM for bp:AO ratios of 4:1 and above. The association curve for AO over a series of steadily increasing DNA concentrations ranging from […] of DNA is shown in FIG. 3-8.
The example shown in FIG. 3-8 illustrating the effect of NaCl on the fluorescence of 2 μM AO was determined over a range of bp:AO ratios from 4 to 62.5. The excitation wavelength was 485 nm while emission was monitored at 530 nm. The association constant for 2 μM AO with DNA was determined to be 31,990±310 M^−1 (R^2=0.98) in the absence of NaCl and 31,690±498 M^−1 (R^2=0.96) in the presence of NaCl. Error bars are shown to denote confidence intervals at 95% unless hidden by a data point symbol. The delta fluorescence values were obtained by subtracting the background fluorescence of HEPES buffered AO at 2 μM in the absence of DNA. The association constant for the interaction of AO with DNA was determined to be 31,990±3,190 M^−1.

The test system of assay [3] is Drosophila salivary gland polytene chromosome. The experiment in a line: Removal of DNA binding stains from polytene chromosome bands by xanthine wash. Set-up: species or system Drosophila melagaster. The note with it: for Degree of Stain Removal, Exposure to AM (100 mM) / Degree of Stain Removal, Exposure to CAF (100 mM): 15 minute wash, static, hydrochloride. As for the experimental part:
In another implementation, giant polytene chromosomes were prepared by the squash technique from the salivary gland of Drosophila melagaster larva The salivary gland was placed on a microscope slide, squashed with a glass cover slide, fixed with acidic acid, rinsed with distilled water, and allowed to dry (kindly provided by Linda Chadwell, UTHSCSA-IBT). Three known DNA intercalators, ethidium bromide (98% purity, Aldrich Chemical Company, Milwaukee, Wis.), doxorubicin (98%, Sigma Chemnical Company, St. Louis, Mo.), and acridine orange plus the minor groove binding DNA stain Hoechst 33258 (98%, ACROS Chemical Company, NJ) were prepared in distilled water at a concentration of 1 mM (for chemical structures see FIG. 4-1, where acridine orange (3,6-bis [dimethylamino] acridine) is shown in Panel A, ethidium bromide is shown in Panel B, doxorubicin is shown in Panel C, Hoechst 33258 is shown in Panel D). The slides with prepared chromosomes were immersed in these stains for a period of 30 minutes, rinsed with distilled water, and dried at room temperature. Fluorescence microscopic analysis was conducted at λex 360 nm and photomicrographs were conducted on a Zeiss Model 63 Microscope with a xenon source fluorescent emitter. Photomicrographs were taken using Kodak Gold 35 mm ASA 1600 speed film noting the position of one individual chromosome on the slide. The stained slides were then subjected to 100 mM caffeine or 100 mM aminophylline under static conditions for a period of 15 minutes, rinsed with distilled water, then allowed to dry at room temperature. The presence of the same individual unstained chromosome in the field was confirmed by phase contrast microscopy. The chromosome was viewed again under fluorescence microscopy at […], and color recorded. Slides were re-stained by immersion in the 1 mM stain for a period of 30 minutes, rinsed with distilled water, and dried at room temperature, and the same individual chromosome was examined by fluorescence microscopy and the fluorescence color recorded.
FIG. 4-3 depicts three photomicrographs of the same Drosophila polytene chromosome: after staining with the DNA minor groove binder Hoechst 33258 dye (Panel A), after rinsing with CAF for 15 minutes (Panel B), and a phase contrast verification of the presence of the chromosome after the CAF rinse (Panel C). Table 4-4 summarizes the results from the experiments using caffeine (CAF) and aminophylline (AM) to remove the following DNA intercalators: doxorubicin, ethidium bromide, acridine orange, and the DNA minor groove binder Hoechst 33258 from their binding sites within polytene chromosomes. […] With all DNA intercalators, the staining of chromosome bands was intense before the xanthine rinses and was again intense following re-staining.

Structures are written as SMILES. Where “and” joins values, the source holds several entries; their conditions need not be identical. Equal values may be shown once. Read-outs that look alike come from different tables or passages of the source.

`CN(C)c1ccc2cc3ccc(N(C)C)cc3nc2c1.Cl` [AO, 3,6-bis[dimethylamino]acridine hydrochloride]: the “Fluorescent Color” value is given as “No Color” in assay [1] (AO 10 μM) and “Red” in assay [1] (AO 5 mM). Besides, the “K ± S.D.” value is 29,100 M^−1 in assay [2] (Absorbance (mathematical model)); 42,500 M^−1 in assay [2] (Absorbance plus NaCl 150 mM); 31,690±498 M^−1 and 31,690±4,980 M^−1 with herring sperm dsDNA (Fluorescence plus NaCl); 31,690 ± 4,890 M^−1 in the assay with herring sperm dsDNA (Fluorescence plus NaCl, listed as AO-DNA); 31,990±310 M^−1 and 31,990±3,190 M^−1 in the assay on herring sperm dsDNA (Fluorescence, absence of NaCl); 31,990 ± 3,190 M^−1 in the assay with herring sperm dsDNA (Fluorescence, absence of NaCl, listed as AO-DNA). Further, the “Re-staining following Xanthine Exposure” value in assay [3] (1 mM stain, 30 minutes) is reported as “Complete”. Moreover, the “Staining before Xanthine Exposure” value in assay [3] (1 mM stain, 30 minutes) is recorded as “Banding”. Moreover, the “Degree of Stain Removal, Exposure to AM (100 mM)” value is given as “completely removed” in assay [3] and “Complete” in assay [3] (listed as Acridine Orange). Besides, the “Degree of Stain Removal, Exposure to CAF (100 mM)” value in assay [3] is reported as “did not completely remove the stain”; in assay [3] (listed as Acridine Orange), “Almost”.

The record behind these values is US7662767B2, “Polynucleotide intercalator interceptors and inhibitors” (Materials Evolution and Development USA, Inc., priority 2000, dated 2010).
